Experimental data published in patent US4568691A, “Anti-inflammatory esters of 4-(1-hydroxy-2-[(acylamino)-alkylamino]-ethyl)-phenol derivatives, compositions, and method of use therefor” (Imperial Chemical Industries, PLC, priority 1981, dated 1986).

Assays:
[1] = system: croton oil induced inflammation on the mouse ear; assay: effect of repeated topical application on anti-inflammatory properties in the croton oil induced inflammation test; format: in vivo, albino mouse (Alderley Park Strain); conditions: for Percentage reduction in croton oil induced inflammation, Four Applns: four applications (3, 2, 1 day before and immediately after croton oil), rate approximately 4 × IC50
Text: (b) An indication of the effect of repeated topical application of a test compound on its anti-inflammatory properties was obtained as follows:
first application received 3 days before croton oil;
second application received 2 days before croton oil;
third application received 1 day before croton oil; and
fourth application received immediately after croton oil.

[2] = system: croton oil induced inflammation on the mouse ear; conditions: known from earlier patent publications (UK 1591618); cited from earlier work
[3] = system: croton oil induced inflammation on the mouse ear; assay: effect of repeated topical application on anti-inflammatory properties in the croton oil induced inflammation test; format: in vivo, albino mouse (Alderley Park Strain); conditions: single application immediately after croton oil; rate approximately 4 × IC50
[4] = system: croton oil induced inflammation on the mouse ear; assay: croton oil induced inflammation test on the mouse ear, single topical application; format: in vivo, albino mouse (Alderley Park Strain); conditions: 4 hours after croton oil
Protocol: A 4% v/v solution of croton oil in (acetone) was prepared. A portion (10 μl.) of this solution was applied to the right ear of an albino mouse (Alderley Park Strain, specific pathogen free). This was followed by immediate application of a portion (10 μl.) of a solution of test compound in ethanol to the same ear of the mouse. This procedure was repeated for a total of ten mice.
After 4 hours the mice were sacrificed and both ears from each mouse were removed and weighed. The increase in weight of the right over the left ear for each mouse was then determined and an average obtained for the group as a whole. […] The percentage inhibition of croton oil induced inflammation was then calculated for the test compound.

CC(C)(CNCC(O)c1ccc(OC(=O)C(C)(C)C)c(OC(=O)C(C)(C)C)c1)NC(=O)COc1ccccc1 (centres unmarked) [phenoxymethyl, 4-(1-hydroxy-2-[2-methyl-2-(phenoxyacetamido)-propylamino]ethyl)catechol dipivaloyl ester]
Percentage reduction in croton oil induced inflammation, Four Applns [1]: 23%
reduction in topical anti-inflammatory properties after repeated topical applications ([1]; two or more / several topical applications spaced over several days): significant reduction in topical anti-inflammatory properties
topical anti-inflammatory properties [2]: potent topical anti-inflammatory properties
Percentage reduction in croton oil induced inflammation, Single Appln [3]: 60%
IC50 (amount of test compound per ear which inhibited the inflammation by 50%) [4]: 2.5 μg/ear

CC(C)(CNC(=O)c1cc2ccccc2o1)NCC(O)c1ccc(OC(=O)C(C)(C)C)c(OC(=O)C(C)(C)C)c1 (centres unmarked) [Example 8, 4-(1-hydroxy-2-[1,1-dimethyl-2-(2-benzo[b]furyl-carboxamido)ethylamino]ethyl)catechol dipivaloyl ester]
Percentage reduction in croton oil induced inflammation, Four Applns [1]: 59%
Percentage reduction in croton oil induced inflammation, Single Appln [3]: 61%
IC50 (amount of test compound per ear which inhibited the inflammation by 50%) [4]: 11 μg/ear

CC(C)(CNC(=O)c1ccco1)NCC(O)c1ccc(OC(=O)C(C)(C)C)c(OC(=O)C(C)(C)C)c1 (centres unmarked) [Example 7, 4-(1-hydroxy-2-[2-(2-furylcarboxyamido)-1,1-dimethyl-ethylamino]ethyl)catechol dipivaloyl ester]
Percentage reduction in croton oil induced inflammation, Four Applns [1]: 64%
Percentage reduction in croton oil induced inflammation, Single Appln [3]: 60%
IC50 (amount of test compound per ear which inhibited the inflammation by 50%) [4]: 13 μg/ear

CC(C)(CNC(=O)c1cccs1)NCC(O)c1ccc(OC(=O)C(C)(C)C)c(OC(=O)C(C)(C)C)c1 (centres unmarked) [Example 2-thienyl]
Percentage reduction in croton oil induced inflammation, Four Applns [1]: 33%
Percentage reduction in croton oil induced inflammation, Single Appln [3]: 71%
IC50 (amount of test compound per ear which inhibited the inflammation by 50%) [4]: 7 μg/ear

CC(C)(CNC(=O)c1cc2ccccc2s1)NCC(O)c1ccc(OC(=O)C(C)(C)C)c(OC(=O)C(C)(C)C)c1 (centres unmarked) [Example 9, 4-(1-hydroxy-2-[1,1-dimethyl-2-(2-benzo[b]thienylcarboxamido)ethylamino]ethyl)catechol dipivaloyl ester]
Percentage reduction in croton oil induced inflammation, Four Applns [1]: 65%
Percentage reduction in croton oil induced inflammation, Single Appln [3]: 64%
IC50 (amount of test compound per ear which inhibited the inflammation by 50%) [4]: 23 μg/ear

CC(C)(CNC(=O)c1cc(Cl)ccn1)NCC(O)c1ccc(OC(=O)C(C)(C)C)c(OC(=O)C(C)(C)C)c1 (centres unmarked) [4-chloro-2-pyridyl]
Percentage reduction in croton oil induced inflammation, Four Applns [1]: 33%
Percentage reduction in croton oil induced inflammation, Single Appln [3]: 68%
IC50 (amount of test compound per ear which inhibited the inflammation by 50%) [4]: 7 μg/ear

CC(C)(CNC(=O)c1ccoc1)NCC(O)c1ccc(OC(=O)C(C)(C)C)c(OC(=O)C(C)(C)C)c1 (centres unmarked) [Example 3-furyl]
Percentage reduction in croton oil induced inflammation, Four Applns [1]: 45%
Percentage reduction in croton oil induced inflammation, Single Appln [3]: 65%
IC50 (amount of test compound per ear which inhibited the inflammation by 50%) [4]: 2 μg/ear
